Tests used:
Format in all cases: cell-based
[1] = system: phospho-Akt in HCC827 (Wild-type); experiment: In-Cell Western phospho-Akt, HCC827; conditions: Homo sapiens, 1 h; HCC827, one hour treatment; read-out: In-Cell Western HCC827 (Wild-type) Akt (P)
Method in brief: (§1)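 One-hour compound treatment of cells plated a day earlier, 0.5% DMSO. Phospho-signal detected by in-cell immunofluorescence imaging; EC50 calculated.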

[2] = system: HCC827 (K-Ras wild type cell line); experiment: Viability assay (CellTiterBlue, 72 hr) HCC827; conditions: Homo sapiens, GI50, CellTiterBlue, HCC827 K-Ras wild-type
Method in brief: (§2)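 Cells were seeded at 1000 per well and allowed 18 hr at 37 °C in CO2 before compound addition (final DMSO 0.5%). After 72 hr exposure, CellTiterBlue was added for 3 hr and fluorescence read at Ex550/Em590. GI50 values were calculated against DMSO (100%) and 100 uM tamoxifen (0%) controls.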

[3] = system: phospho-ERK in Panc10.05 (G12D); experiment: In-Cell Western phospho-ERK, Panc10.05; conditions: Homo sapiens, Panc1005, 1 h; Panc10.05, one hour treatment; read-out: In-Cell Western Panc10.05 (G12D) Erk (P)
Method in brief: as §1

wild type K-Ras = biological target: T1, wild type K-Ras (Homo sapiens, UniProt P01116); experiment: G-LISA Ras activation, 293H cells transfected with Ras wild-type, EGF stimulated; conditions: compound 1 hour, then 100 ng/ml EGF 2 minutes
T1 construct: expressed in transfected cells; host or cells: 293H cells
T1 sequence (P01116 whole entry): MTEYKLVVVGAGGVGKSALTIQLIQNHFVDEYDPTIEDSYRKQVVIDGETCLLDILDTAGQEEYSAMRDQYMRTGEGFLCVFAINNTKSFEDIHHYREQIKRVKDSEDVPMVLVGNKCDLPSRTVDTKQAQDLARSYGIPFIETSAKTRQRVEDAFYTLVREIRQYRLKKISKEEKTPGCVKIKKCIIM
Method in brief: (§3)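 Cells: 293H, Ras plasmid transfection (5 μg). Cpd 3.125-25 μM, 1 h; WT cells + EGF 100 ng/ml, 2 min. Lysed on ice; active Ras by G-LISA.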

[4] = system: phospho-Akt in A375 (Wild-type); experiment: In-Cell Western phospho-Akt, A375; conditions: Homo sapiens, A-375, 1 h; A375, one hour treatment; read-out: In-Cell Western A375 (Wild-type) Akt (P)
Method in brief: as §1

[5] = system: phospho-ERK in A375 (Wild-type); experiment: In-Cell Western phospho-ERK, A375; conditions: Homo sapiens, A-375, 1 h; A375, one hour treatment; read-out: In-Cell Western A375 (Wild-type) Erk (P)
Method in brief: as §1

Panc10.05-G12D = experiment: Viability assay (CellTiterBlue, 72 hr) Panc10.05; conditions: Homo sapiens, Panc1005, GI50, CellTiterBlue, Panc10.05 K-Ras G12D, read-out: 72 hr Cell Viability Panc10.05 (G12D)
Method in brief: as §2

[6] = system: A375 (K-Ras wild type cell line); experiment: Viability assay (CellTiterBlue, 72 hr) A375; conditions: Homo sapiens, A-375, GI50, CellTiterBlue
Method in brief: as §2

[7] = system: U87-MG (K-Ras wild type cell line); experiment: Viability assay (CellTiterBlue, 72 hr) U87-MG; conditions: Homo sapiens, U-87 MG, GI50, CellTiterBlue, U87-MG K-Ras wild-type
Method in brief: as §2

Panc1-G12D = experiment: Viability assay (CellTiterBlue, 72 hr) Panc1; conditions: Homo sapiens, PANC-1, GI50, CellTiterBlue, Panc1 K-Ras G12D, read-out: 72 hr Cell Viability Panc1 (G12D)
Method in brief: as §2

[8] = system: phospho-Akt in Panc1 (G12D); experiment: In-Cell Western phospho-Akt, Panc1; conditions: Homo sapiens, PANC-1, 1 h; Panc1, one hour treatment; read-out: In-Cell Western Panc1 (G12D) Akt (P)
Method in brief: as §1

K-Ras G12D = biological target: T2, K-Ras G12D (Homo sapiens, UniProt P01116, G12D); experiment: G-LISA Ras activation, 293H cells transfected with G12D mutant; conditions: compound 1 hour
T2 construct: expressed in transfected cells; host or cells: 293H cells
T2 sequence (P01116 whole entry G12D): as the sequence (P01116 whole entry) above, with G12D counted along it
Method in brief: as §3

HCT116-G31D = experiment: Viability assay (CellTiterBlue, 72 hr) HCT116; conditions: Homo sapiens, HCT-116, GI50, CellTiterBlue, HCT116 K-Ras G13D, read-out: 72 hr Cell Viability HCT116 (G13D)
Method in brief: as §2

[9] = system: phospho-Akt in Panc10.05 (G12D); experiment: In-Cell Western phospho-Akt, Panc10.05; conditions: Homo sapiens, Panc1005, 1 h; Panc10.05, one hour treatment; read-out: In-Cell Western Panc10.05 (G12D) Akt (P)
Method in brief: as §1

[10] = system: phospho-ERK in Panc1 (G12D); experiment: In-Cell Western phospho-ERK, Panc1; conditions: Homo sapiens, PANC-1, 1 h; Panc1, one hour treatment; read-out: In-Cell Western Panc1 (G12D) Erk (P)
Method in brief: as §1

[11] = system: Ishikawa (K-Ras wild type cell line); experiment: Viability assay (CellTiterBlue, 72 hr) Ishikawa; conditions: Homo sapiens, GI50, CellTiterBlue, Ishikawa K-Ras wild-type
Method in brief: as §2

[12] = system: phospho-ERK in HCC827 (Wild-type); experiment: In-Cell Western phospho-ERK, HCC827; conditions: Homo sapiens, 1 h; HCC827, one hour treatment; read-out: In-Cell Western HCC827 (Wild-type) Erk (P)
Method in brief: as §1

Which EC50 [1] does the source give for `Cc1nn(C(C)C)cc1C(=O)Nc1nc(-c2ccc3c(c2)CCC(=O)N3Cc2cccnc2)cs1` [Compound 116, 1-isopropyl-3-methyl-N-(4-(2-oxo-1-(pyridin-3-ylmethyl)-1,2,3,4-tetrahydroquinolin-6-yl)thiazol-2-yl)-1-pyrazole-4-carboxamide] here?
The EC50 was > 25 µM.

What about the IC50 [2] of the same compound?
Its IC50 is 4 µM.

And the EC50 [3]?
Its EC50 is 0.745 µM.

What about the IC50 (wild type K-Ras) of the same compound?
The IC50 was 6.1 µM.

What about the EC50 [4] of the same compound?
The EC50 was > 25 µM.

What about the EC50 [5] of the same compound?
The EC50 was 12 µM.

What about the IC50 (Panc10.05-G12D) of the same compound?
The IC50 was 1.2 µM.

What about the IC50 [6] of the same compound?
The IC50 was 12 µM.

What about the IC50 [7] of the same compound?
The IC50 was > 25 µM.

What about the IC50 (Panc1-G12D) of the same compound?
Its IC50 is 3 µM.

What about the EC50 [8] of the same compound?
Its EC50 is 22 µM.

And the IC50 (K-Ras G12D)?
Its IC50 is 2.5 µM.

And the IC50 (HCT116-G31D)?
The IC50 was > 25 µM.

What about the EC50 [9] of the same compound?
Its EC50 is 2 µM.

What about the EC50 [10] of the same compound?
Its EC50 is 3 µM.

And the IC50 [11]?
Its IC50 is 21 µM.

And the EC50 [12]?
Its EC50 is 3 µM.

How did the EC50 [1] turn out when `CCCn1nc(C)c(C(=O)Nc2nc(-c3ccc4c(c3)CCC(=O)N4)cs2)c1C` [Compound 55, 3,5-dimethyl-N-(4-(2-oxo-1,2,3,4-tetrahydroquinolin-6-yl)thiazol-2-yl)-1-propyl-1H-pyrazole-4-carboxamide] was run?
Its EC50 is > 25 µM.

And the IC50 [2]?
The IC50 was > 25 µM.

What about the EC50 [3] of the same compound?
The EC50 was 14 µM.

What about the IC50 (wild type K-Ras) of the same compound?
Its IC50 is 6.5 µM.

What about the EC50 [4] of the same compound?
The EC50 was > 25 µM.

And the EC50 [5]?
The EC50 was > 25 µM.

And the IC50 (Panc10.05-G12D)?
The IC50 was > 25 µM.

What about the IC50 [6] of the same compound?
The IC50 was > 25 µM.

And the IC50 [7]?
The IC50 was > 25 µM.

And the IC50 (Panc1-G12D)?
The IC50 was > 25 µM.

And the EC50 [8]?
Its EC50 is > 25 µM.

And the IC50 (K-Ras G12D)?
Its IC50 is 4 µM.

What about the IC50 (HCT116-G31D) of the same compound?
Its IC50 is > 25 µM.

What about the EC50 [9] of the same compound?
Its EC50 is > 25 µM.

And the EC50 [10]?
Its EC50 is > 25 µM.

And the IC50 [11]?
Its IC50 is > 25 µM.

And the EC50 [12]?
The EC50 was > 25 µM.

Which results are given for `CCc1nc(C)c(C(=O)Nc2nc(-c3ccc4c(c3)CCC(=O)N4CCOC)cs2)o1` [Compound 110, 2-ethyl-N-(4-(1-(2-methoxyethyl)-2-oxo-1,2,3,4-tetrahydroquinolin-6-yl)thiazol-2-yl)-4-methyloxazole-5-carboxamide]?
EC50 [1]: > 25 µM; IC50 [2]: 4 µM; EC50 [3]: 1.3 µM; IC50 (wild type K-Ras): 6.8 µM; EC50 [4]: > 25 µM; EC50 [5]: 23 µM; IC50 (Panc10.05-G12D): 0.778 µM; IC50 [6]: > 25 µM; IC50 [7]: 17 µM; IC50 (Panc1-G12D): 4 µM; EC50 [8]: 23 µM; IC50 (K-Ras G12D): 3.9 µM; IC50 (HCT116-G31D): > 25 µM; EC50 [9]: 3 µM; EC50 [10]: 3 µM; IC50 [11]: 10 µM; EC50 [12]: 4 µM

`Cc1nn(C(C)(C)C)c(C)c1C(=O)Nc1nc(-c2ccc3c(c2)CCC(=O)N3)cs1` [Compound 57, 1-(tert-butyl)-3,5-dimethyl-N-(4-(2-oxo-1,2,3,4-tetrahydroquinolin-6-yl)thiazol-2-yl)-1H-pyrazole-4-carboxamide] was tested. Which EC50 [1] did it give?
The EC50 was > 25 µM.

And the IC50 [2]?
Its IC50 is > 25 µM.

And the EC50 [3]?
The EC50 was 6 µM.

What about the IC50 (wild type K-Ras) of the same compound?
The IC50 was 30 µM.

What about the EC50 [4] of the same compound?
Its EC50 is > 25 µM.

And the EC50 [5]?
The EC50 was > 25 µM.

And the IC50 (Panc10.05-G12D)?
The IC50 was 8 µM.

What about the IC50 [6] of the same compound?
Its IC50 is 27 µM.

And the IC50 [7]?
The IC50 was > 25 µM.

What about the IC50 (Panc1-G12D) of the same compound?
Its IC50 is > 25 µM.

And the EC50 [8]?
The EC50 was > 25 µM.

And the IC50 (K-Ras G12D)?
The IC50 was 9.4 µM.

And the IC50 (HCT116-G31D)?
Its IC50 is > 25 µM.

And the EC50 [9]?
The EC50 was > 25 µM.

What about the EC50 [10] of the same compound?
Its EC50 is 26 µM.

What about the IC50 [11] of the same compound?
Its IC50 is > 25 µM.

What about the EC50 [12] of the same compound?
Its EC50 is > 25 µM.

What does the source list for `Cc1nn(C(C)C)c(C)c1C(=O)Nc1nc(-c2ccc3c(c2)CCC(=O)N3)cs1` [Compound 52, 1-isopropyl-3,5-dimethyl-N-(4-(2-oxo-1,2,3,4-tetrahydroquinolin-6-yl)thiazol-2-yl)-1H-pyrazole-4-carboxamide]?
EC50 [1]: > 25 µM; IC50 [2]: 10 µM; EC50 [3]: 4 µM; IC50 (wild type K-Ras): 13.9 µM; EC50 [4]: 24 µM; EC50 [5]: 14 µM; IC50 (Panc10.05-G12D): 15 µM; IC50 [6]: 5 µM; IC50 [7]: 14 µM; IC50 (Panc1-G12D): 16 µM; EC50 [8]: > 25 µM; IC50 (K-Ras G12D): 5.2 µM; IC50 (HCT116-G31D): 10 µM; EC50 [9]: 18 µM; EC50 [10]: 8 µM; IC50 [11]: 13 µM; EC50 [12]: 20 µM

From patent US10344026B2, “Compositions and methods of targeting mutant K-ras” (NANTBIO, INC., priority 2017, dated 2019)
